The text below walks through data of patent US20240300954A1, “NOVEL MODULATORS OF THE SIGMA-2 RECEPTOR AND THEIR METHOD OF USE” (Temple University-Of The Commonwealth System of Higher …, priority 2017, published 2024).

Sequence of sigma-2 receptors (Q5BJF2 whole entry, looked up): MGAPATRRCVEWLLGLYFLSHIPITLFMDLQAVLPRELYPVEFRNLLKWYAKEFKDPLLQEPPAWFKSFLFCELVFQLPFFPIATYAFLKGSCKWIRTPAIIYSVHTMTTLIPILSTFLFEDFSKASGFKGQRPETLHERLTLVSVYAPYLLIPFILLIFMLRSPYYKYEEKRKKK

The assay has as its target sigma-2 receptors (Homo sapiens, UniProt Q5BJF2). Description: Radiolabel Binding Studies for the Sigma-2 Receptor (3H-DTG competition). As to conditions: 3H-DTG radioligand; membrane fractions of cells expressing recombinant sigma-2 receptors. The protocol: A solution of the compound of the disclosure to be tested is prepared as a 1-mg/ml stock in Assay Buffer or DMSO according to its solubility. A similar stock of the reference compound Haloperidol is also prepared as a positive control. Eleven dilutions (5× assay concentration) of the compound of the disclosure and Haloperidol are prepared in the Assay Buffer by serial dilution to yield final corresponding assay concentrations ranging from 10 pM to 10 μM.
A stock concentration of 5 nM ^3H-1,3-di-(2-tolyl)guanidine (^3H-DTG) is prepared in 50 mM Tris-HCl, 10 mM MgCl2, 1 mM EDTA, pH 7.4 (Assay Buffer). Aliquots (50 μl) of radioligand are dispensed into the wells of a 96-well plate containing 100 μl of Assay Buffer. Duplicate 50 μl aliquots of the compound of the disclosure test and Haloperidol positive control reference compound serial dilutions are added.
Membrane fractions of cells expressing recombinant sigma-2 receptors (50 μL) are dispensed into each well. The membranes are prepared from stably tranfected cell lines expressing sigma-2 receptors cultured on 10-cm plates by harvesting PBS-rinsed monolayers, resuspending and lysing in chilled, hypotonic 50 mM Tris-HCl, pH 7.4, centrifuging at 20,000×g, decanting the supernatant and storing at −80° C.; the membrane preparations are resuspended in 3 ml of chilled Assay Buffer and homogenized by several passages through a 26 gauge needle before using in the assay.
The 250-μl reactions are incubated at room temperature for 1.5 hours, then harvested by rapid filtration onto 0.3% polyethyleneimine-treated, 96-well filter mats using a 96-well Filtermate harvester. Four rapid 500-μl washes are performed with chilled Assay Buffer to reduce non-specific binding. The filter mats are dried, then scintillant is added to the filters and the radioactivity retained on the filters is counted in a Microbeta scintillation counter.
Raw data (dpm) representing total radioligand binding (i.e., specific+non-specific binding) are plotted as a function of the logarithm of the molar concentration of the competitor (i.e., test or reference compound). Non-linear regression of the normalized (i.e., percent radioligand binding compared to that observed in the absence of test or reference compound) raw data is performed in Prism 4.0 (GraphPad Software) using the built-in three parameter logistic model describing ligand competition binding to radioligand-labeled sites:
[formula] • where bottom equals the residual radioligand binding measured in the presence of 10 μM reference compound (i.e., non-specific binding) and top equals the total radioligand binding observed in the absence of competitor. The log IC50 (i.e., the log of the ligand concentration that reduces radioligand binding by 50%) is thus estimated from the data and used to obtain the Ki by applying the Cheng-Prusoff approximation:
[formula] • where [ligand] equals the assay radioligand concentration and KD equals the affinity constant of the radioligand for the target receptor.
As to `CCC1(CC)CC(CCN2CC3CN(c4ccccc4)CC3C2)OC1=O` (stereo not drawn) [Entry 1], the IC50 (commonly the midpoint of a concentration-inhibition curve) came to 3.5 nM.
In the case of `CCC1(CC)CC(CCN2CC3CN(c4ccncc4)CC3C2)OC1=O` (stereo not drawn) [Entry 2], the IC50 was determined as 29 nM.
As to `O=C1OC(CCN2CC3CN(c4ccncc4)CC3C2)CC12CCCCC2` (stereo not drawn) [Entry 3], the IC50 was 39 nM.
For the compound `CCC1(CC)CC(CCN2CC3CN(c4ccccc4C(C)C)CC3C2)OC1=O` (stereo not drawn) [Entry 4], the IC50 turned out to be 2 nM.
To `CC(C)c1ccccc1N1CC2CN(CCC3CC4(CCCCC4)C(=O)O3)CC2C1` (stereo not drawn) [Entry 5] belongs 2.4 nM; to `Cc1cnccc1N1CC2CN(CCC3CC4(CCCCC4)C(=O)O3)CC2C1` (stereo not drawn) [Entry 6], 3.9 nM.
With `Cc1cc(N2CC3CN(CCC4CC5(CCCCC5)C(=O)O4)CC3C2)ccn1` (stereo not drawn) [Entry 7], the 50% inhibitory concentration (IC50) is 11 nM.
For `Cc1cc(N2CC3CN(CCC4CC5(CCCCC5)C(=O)O4)CC3C2)cc(C)n1` (stereo not drawn) [Entry 8] the value was 24 nM; for `O=C1OC(CCN2CC3(C2)CN(c2ccncc2)C3)CC12CCCCC2` (stereo not drawn) [Entry 9], 34 nM.
To `CCC1(CC)CC(CCN2CC3(C2)CN(c2ccncc2)C3)OC1=O` (stereo not drawn) [Entry 10] belongs 59 nM; to `O=C1OC(CCN2CC3(C2)CN(c2ccccc2)C3)CC12CCCCC2` (stereo not drawn) [Entry 11], 30 nM; to `Cc1cnccc1N1CC2(CN(CCC3CC4(CCCCC4)C(=O)O3)C2)C1` (stereo not drawn) [Entry 12], 3.9 nM.
`Cc1cc(N2CC3(CN(CCC4CC5(CCCCC5)C(=O)O4)C3)C2)ccn1` (stereo not drawn) [Entry 13]: the IC50 amounted to 1.2 nM.
For `Cc1cc(N2CC3(CN(CCC4CC5(CCCCC5)C(=O)O4)C3)C2)cc(C)n1` (stereo not drawn) [Entry 14] the value was 1.5 nM.
For `CCC1(CC)CC(CCN2CC3(C2)CN(c2ccccc2)C3)OC1=O` (stereo not drawn) [Entry 15] the value was 53 nM; for `CCC1(CC)CC(CCN2CC3CN(c4ccccc4C#N)CC3C2)OC1=O` (stereo not drawn) [Entry 16], 6.8 nM.
As for `CCC1(CC)CC(CCN2CC3CN(c4cccc(C#N)c4)CC3C2)OC1=O` (stereo not drawn) [Entry 17], the 50% inhibitory concentration (IC50) came to 7 nM.
Consider `CCC1(CC)CC(CCN2CC3CN(c4ccc(C#N)cc4)CC3C2)OC1=O` (stereo not drawn) [Entry 18], for which the IC50 amounted to 9.6 nM.
For `CCC1(CC)CC(CCN2CC3CN(c4ccccc4OC)CC3C2)OC1=O` (stereo not drawn) [Entry 19] the value was 6.5 nM; for `CCC1(CC)CC(CCN2CC3CN(c4cccc(OC)c4)CC3C2)OC1=O` (stereo not drawn) [Entry 20], 25 nM.
To `CCC1(CC)CC(CCN2CC3CN(c4ccc(OC)cc4)CC3C2)OC1=O` (stereo not drawn) [Entry 21] belongs 22 nM.
